Reference: patent publication US20040122059A1, “PPAR-gamma ligands in the treatment of asthma and allergies” (The Penn State Research Foundation, priority 2002, published 2004)
Where “and” joins values, the source holds several entries; their conditions need not be identical. Equal entries are not always repeated.

How the values were obtained:
[1] = tested on: murine model of allergic asthma; experiment: OVA-induced allergic asthma, lung histopathology (asthma severity); type: in vivo, Balb/c mice; conditions: for Asthma severity (total histopathology score 0-6): 0.12 μM Ciglitazone/daily per mouse in diet from one week before induction
Method: Asthma was induced in the mice as described (Zhang et al. 1999. Immunity 11: 473). Briefly mice were injected intraperitoneally with 10 µg of OVA in Alum twice on day 1 and 5 of asthma induction (primed). On day 10, mice were challenged intranasally with OVA in sterile saline, every day for three days (40 μg total). In an alternative protocol the mice were only challenged intranasally (unprimed) with OVA for three consecutive days. Asthma induction was effective with or without the use of immunization (Alum and OVA injections). Two weeks after asthma induction (the day after the last intranasal challenge) the mice were sacrificed. Two different Ciglitazone treatments were done. […] The mice continued on these diets for the remainder of the study. […] Asthma severity. The lungs were fixed in formalin and sent to the Penn State University Animal Diagnostic Laboratories for sectioning and staining with hematoxylin and eosin. The sections were scored blindly on a scale of 0 to 3 for inflammation and 0-3 for epithelial thickening. […] The inflammation and epithelial scores for each section were added together for a total histopathology score ranging from 0-6. The results are presented as means±SEMs. […] In this model, mice are initially exposed to OVA in complex with Alum intraperitoneally, then challenged intranasally with OVA. This protocol usually leads to increased inflammatory cell infiltration into the lung, thickening of the epithelial cells lining the bronchioles of the lung, mucous secretion and in most cases, increased presence of circulating serum IgE. These symptoms highlight the predominant TH2 nature of this disease. Mice (Balb/c) were primed and with OVA intranasally as described in the Materials and Methods section. Twenty-four hours after the final intranasal challenge, mice were analyzed for immunological symptoms of allergic asthma. […]

splenocytes = experiment: Antigen specific cytokine production and proliferation of splenocytes from treated mice restimulated in vitro with OVA; type: in vivo, Balb/c mice; conditions: for Proliferation: [3H]thymidine
Method: Measurement of lymphocyte proliferation and cytokine production. Th cells were cultured in 96 well plates for proliferation assays and 24 well plates for supernatants (Corning Costar, Corning, N.Y.). After 72 h, supernatants were collected for ELISAs. For proliferation assays, 0.4 μCi of [3H]thymidine (ICN, Costa Mesa, Calif.) was added to each well and the cells were incubated for an additional 18 h. Radioactive thymidine incorporation was determined by liquid scintillation using a Beta plate Counter. Mouse IL-2, IL-4, IL-5 and IFN-γ production were detected using ELISA kits from Pharmingen, following the instructions provided. […] Asthma was induced in the mice as described (Zhang et al. 1999. Immunity 11: 473). Briefly mice were injected intraperitoneally with 10 µg of OVA in Alum twice on day 1 and 5 of asthma induction (primed). On day 10, mice were challenged intranasally with OVA in sterile saline, every day for three days (40 μg total). In an alternative protocol the mice were only challenged intranasally (unprimed) with OVA for three consecutive days. Asthma induction was effective with or without the use of immunization (Alum and OVA injections). Two weeks after asthma induction (the day after the last intranasal challenge) the mice were sacrificed. Two different Ciglitazone treatments were done. […] The mice continued on these diets for the remainder of the study.

TH2 cells = experiment: Cytokine production by TH2-primed DO11.10 CD4+ T cells stimulated with PMA and ionomycin; type: cell-based, mouse; conditions: PGJ2 10 mM, CLA 5 mM, 72 h supernatant ELISA
Method: (§1) TH cell cultures. Lymph node and spleen cells from the DO11.10 TCR transgenic mice were removed and CD4 positive cells were isolated using the CD4 Immunocolumns and the manufacturer's instructions (Cedarlane labs, Homby, Canada). CD4 positive T cells (95-98% pure) were cultured in vitro with OVA and mitomycin C treated splenocytes from congenic mice. The cultures were incubated under neutral conditions (TH0 priming) or with rIL-4 and anti-IFN-γ antibodies (TH2 priming), or with rIL-12 (TH1 priming). After 4 days (4d) in culture the cells were collected and dead splenocytes were removed by centrifugation over histopaque. […] T cells were collected and recultured with rIL-2 (Pharmingen) for 3 d to expand the T cells. Cells were then collected, washed and stimulated for proliferation and cytokine synthesis with phorbal myristiyl acetate (PMA, Sigma, St. Louis, Mo.) and ionomycin (Sigma) in the presence of PJG2, conjugated linoleic acid (CLA) or control treated.
(§2) Measurement of lymphocyte proliferation and cytokine production. Th cells were cultured in 96 well plates for proliferation assays and 24 well plates for supernatants (Corning Costar, Corning, N.Y.). After 72 h, supernatants were collected for ELISAs. For proliferation assays, 0.4 μCi of [3H]thymidine (ICN, Costa Mesa, Calif.) was added to each well and the cells were incubated for an additional 18 h. Radioactive thymidine incorporation was determined by liquid scintillation using a Beta plate Counter. Mouse IL-2, IL-4, IL-5 and IFN-γ production were detected using ELISA kits from Pharmingen, following the instructions provided. The ELISA detection limits were 25 pg/ml IL-2, 62 pg/ml IL-4, 312 pg/ml IL-5, and 1000 pg/ml IFN-γ.
(§3) The present inventors decided to test if T cells are direct targets of PPAR-γ ligands. Purified CD4+T cells carrying the transgenic TcR for OVA (DO11.10) were cultured in vitro with OVA and mitomycin C treated splenocytes under neutral conditions (THO priming) or with rIL-4 and anti-IFN-γ antibodies (TH2 priming), or with rIL-12 (TH1 priming). Following 4 days of initial culture, cells were isolated and expanded in rIL-2. These expanded antigen specific T cells were stimulated in the presence or absence of PJG2, a PPAR-γ ligand and cells analyzed for proliferation and cytokine synthesis (Table 1). As previously characterized, cells initially stimulated under TH1 conditions (TH1 cells) secreted more IFN-γ and IL-2 and less IL-4 and IL-5 than those initially stimulated under TH2 conditions (TH2 cells). The TH1 and TH2 cells were greater than 95% CD4+and carried the transgenic TcR (data not shown). The PPAR-γ ligand PGJ2 regulated cytokine production in both TH1 and TH2 cells. PGJ2 inhibited IL-4 and IL-5 production in TH1 cells and inhibited IFN-γ, IL-2, and IL-5 production in TH2 cells (Table 1).

TH1 cells = experiment: Cytokine production by TH1-primed DO11.10 CD4+ T cells stimulated with PMA and ionomycin; type: cell-based, mouse; conditions: PGJ2 10 mM, CLA 5 mM, 72 h supernatant ELISA
Method: as §1, §2, §3

[2] = Primed mice, late Ciglitazone treatment

## CC1(COc2ccc(CC3SC(=O)NC3=O)cc2)CCCCC1 (stereo not shown) [Ciglitazone]
[1]; PRIMED mice (OVA/Alum i.p., then intranasal OVA)
  Asthma severity (total histopathology score 0-6): 1+/−0.3 and 1.0 ± 0.3
[1]; UNPRIMED mice, intranasal OVA challenge only
  Asthma severity (total histopathology score 0-6): 0.8+/−0.2 and 0.8±0.2
[1]; representative lung, Ciglitazone treated
  Histopathology score of representative lung section (FIG. 1B): 1
splenocytes; Primed mice fed Ciglitazone
  IL-5: 903 ± 87 pg/mL
  Proliferation: 10649 ± 492 CPM
splenocytes; [2]
  IFN-γ: 4063 ± 170 pg/mL
  IL-4: 395 ± 92 pg/mL
  IL-5: 875 ± 79 pg/mL
  Proliferation: 10579 ± 1477 CPM

## CCCCC/C=C/C=C1/C(=O)C=C[C@@H]1C/C=C\CCCC(=O)O [PGJ2, 15-deoxy-Delta(12,14)-prostaglandin J(2)]
TH2 cells
  IL-4: 1861 ± 28 pg/mL
TH1 cells
  IFN-γ: 14370 ± 250 pg/mL
  IL-2: 512 ± 1 pg/mL

## conjugated linoleic acid [CLA]
TH2 cells
  IFN-γ: 5592 ± 306 pg/mL
  IL-2: 224 ± 4 pg/mL
  IL-4: 1863 ± 62 pg/mL
  IL-5: 240 ± 52 pg/mL
TH1 cells
  IFN-γ: 14689 ± 370 pg/mL
  IL-2: 522 ± 20 pg/mL
  IL-5: 150 ± 6 pg/mL
